Values after ≈ are worked out from the molar mass of the structure shown. Values joined by “and” are separate entries in the source; they are usually repeats but may differ in a detail not shown here. Equal entries are not always repeated.
Legend:
[1] = previously reported; cited from earlier work
[2] = system: Rh4 rhabdomyosarcoma cell line; assay type: cell-based
Procedure: Materials: The cells were cultured at 37° C. in 5% CO2 in a-MEM (Multicell; Wisent, Inc., St. Bruno, Quebec, Canada) with 10% fetal bovine serum (FBS; Life Technologies, Grand Island, N.Y.) and 1% antibiotic mixture, containing 10000 IU penicillin and 10000 μg/ml streptomycin (Multicell; Wisent, Inc., St. Bruno, Quebec, Canada). Trypsin-EDTA, containing 0.05% trypsin and 0.53 mM EDTA was also purchased from Multicell; Wisent, Inc., St. Bruno, Quebec, Canada.
Procedure: A total of 20,000 cells were plated in each well of 48 well-plates and incubated at 37° C. in 5% CO2. After 48 h, the cells were treated with various concentrations of drugs. After 72 h of treatment, the cell viability was determined by alamar blue assay.

[3] = system: circulating endothelial progenitor cells (CEPs); assay: CEP/CEC flow cytometry in SK-N-BE(2) xenograft model; assay type: in vivo, mouse; conditions: after one week treatment
Procedure: Approximately 160 μl of mouse blood was collected in K2-EDTA tubes by saphenous vein puncture from animals of the SK-N-BE(2) xenograft model (after one week treatment) and BE(2)-c metastatic model (after one week and four weeks treatment). Blood was immediately stored at 4° C. until analysis. The CEP/CECs were measured by flow cytometry within 48 hrs of blood collection as previously described. CEPs were defined as CD45−, VEGFR-2+, CD117+, and CD13+, while CECs were defined as CD45−, VEGFR-2+, CD117−, and CD13+. The absolute number of CEPs was calculated as the percentage of events collected in CEP enumeration gates multiplied by the total white blood cell (WBC) count.

[4] = system: HIF-1 alpha; assay: Immunohistochemistry of xenograft tumors, HIF-1 alpha; assay type: in vivo, NOD/SCID mice; conditions: NB12 xenograft model
Procedure: Formalin fixed tissues were paraffin embedded and sections cut at 7 um. […] The primary antibodies were anti-HIF-1 alpha (#NB100-131, Novus Biologicals, dilution 1:3000), HIF-2 alpha (#NB100-122, Novus Biologicals, dilution 1:100), Oct-4 (#2890S, Cell Signalling, dilution 1:100), von Willebrand factor (#A0082; DakoCytomation, Glostrup, Denmark). After the primary antibody treatment, all the slides were washed three times with PBS and incubated with broad spectrum poly-horse radish peroxidase (HRP) conjugate […] secondary antibody (87-9663, Invitrogen) for 1 h at room temperature. After washing three times with PBS, slides were stained with diaminobenzidine (DAB) and counterstained with hematoxylin. Microscopic images of six fields of high vascular density were digitally captured for vWF-stained slides, while for HIF-1 alpha, HIF-2 alpha and Oct-4 stained slides, the images of six randomly selected areas were captured. The pixel values for stained areas were quantified using ImageJ software. Tumor angiogenesis was quantified as the number of pixels of regions positive for vWF.

[5] = system: BE(2)-c experimental metastases; assay: BE(2)-c metastatic tumor model; assay type: in vivo, NOD/SCID mice
Procedure: 1×10^6 BE(2)-c cells were injected into lateral tail veins of NOD/SCID mice to generate ‘experimental’ metastases. […] The treatment was continued until death or end point.
In the metastatic model, the animals' organs (liver, kidney, adrenal, and femur) were removed after the death/sacrifice of animals, and were fixed in 10% formalin and paraffin-embedded. These paraffin-embedded sections were then stained with hematoxylin and eosin and microscopically examined.

[6] = system: KHOS xenograft; assay: KHOS osteosarcoma mouse xenograft model; assay type: in vivo, NOD/SCID mice
[7] = system: KHOS xenograft tumor microvasculature; assay: Microvessel density by von Willebrand factor staining of KHOS xenografts; assay type: in vivo, NOD/SCID mice; conditions: after 28 days treatment
Procedure: Procedure: Formalin fixed tissues were paraffin embedded and sections cut at 7 um. […] The primary antibody was von Willebrand factor (#A0082; DakoCytomation, Glostrup, Denmark). After the primary antibody treatment, the slides were washed three times with PBS and incubated with broad spectrum poly-horse radish peroxidase (HRP) conjugate secondary antibody (87-9663, Invitrogen) for 1 h at room temperature. After washing three times with PBS, slides were stained with diaminobenzidine (DAB) and counterstained with hematoxylin. Microscopic images of six fields of high vascular density were digitally captured. The pixel values for stained areas were quantified using ImageJ software. Tumor angiogenesis was quantified as the number of pixels of regions positive for von Willebrand Factor.

[8] = system: BE(2)-c neuroblastoma cell line; assay: In-vitro cytotoxicity, Alamar Blue cell viability; assay type: cell-based; conditions: Homo sapiens, topotecan alone, 72 h
Text: (§1) SK-N-BE(2) (MYCN amplified) and SH-SY5Y (non-MYCN amplified neuroblastoma cell lines) were obtained from American Type Culture Collection (ATCC) (Manassas, Va.); BE(2)-c sub-clone of SK-N-BE(2) was obtained from Dr. Michelle Haber (Children's Cancer Institute for Medical Research, Lowry Cancer Research Centre, Randwick, Australia); Human Umbilical Vein Endothelial Cells (HUVECs) were obtained from Dr. Herman Yeger (The Hospital for Sick Children, Toronto, Ontario, Canada) and Tumor Initiating (TIC) cell lines NB12 and NB88, were obtained from Dr. David Kaplan (The Hospital for Sick Children, Toronto, Ontario, Canada). TICs NB12 and NB88 were isolated from the bone marrow metastases of relapsed high-risk neuroblastoma patients. Neuroblastoma cell lines SK-N-BE(2) and SH-SY5Y were grown in alpha-MEM containing 10% fetal bovine serum and 1% antibiotic mixture in humidified atmosphere at 37° C. with 5% CO2. NB12 and NB 88 were cultured as described previously.
(§2) Cell viability was determined by Alamar Blue assay. Alamar blue (10% of total volume was added to each well three hours prior to fluorometric detection). Fluorometric detection was performed using the SPECTRAmax gemini Spectrophotometer at excitation wavelength of 540 nm and emission wavelength of 590 nm.

[9] = system: NB88 tumor initiating cell line; assay: In-vitro cytotoxicity, Alamar Blue cell viability; assay type: cell-based; conditions: topotecan alone, 72 h
Text: as §1, §2

[10] = system: NB12 tumor initiating cell line; assay: In-vitro cytotoxicity, Alamar Blue cell viability; assay type: cell-based; conditions: topotecan alone, 72 h
Text: as §1, §2

[11] = system: circulating endothelial cells (CECs), CEPs, WBC; assay: Viable CECs, CEPs and WBC in KHOS osteosarcoma model; assay type: in vivo, NOD/SCID mice; conditions: 21 days treatment
Procedure: Procedure: Approximately 160 μl of blood was sampled in heparinized microtubes at 21st day of treatment by saphenous vein puncturing. These blood samples were stored at 4° C. until analysis. CEC/CEP measurement was done within 48 h of blood collection by flow cytometry.

Question: Which results are given for Cc1ccc(Nc2nccc(N(C)c3ccc4c(C)n(C)nc4c3)n2)cc1S(N)(=O)=O [pazopanib, 5-[[4-[(2,3-dimethyl-2H-indazol-6-yl)methylamino]-2-pyrimidinyl]amino]-2-methylbenzenesulfonamide]?
Answer: optimal plasma concentration of pazopanib effectiveness [1]: ≈ 18 μg/ml and 40 μM; cell viability / cytotoxicity [2]: did not show cytotoxicity; mean values of CEPs compared to control [3]: statistically significant difference; HIF-1 alpha expression [4]: increase

Question: Which “survival span, TP versus PZ treated group” value ([5]; P<0.05) does the source give for CC[C@@]1(O)C(=O)OCc2c1cc1n(c2=O)Cc2cc3c(CN(C)C)c(O)ccc3nc2-1 [topotecan] here?
Answer: higher

Question: What about the “histology of organs: tumors in liver and kidney” value ([5]; at time of death or end point) of the same molecule?
Answer: macroscopically detectable tumors in liver and kidney

Question: What about the mean survival span ([5]; daily oral gavage from 14 days after i.v. cell injection, TP 1.0 mg/Kg, TP+PZ plus 150 mg/Kg pazopanib) of the same molecule?
Answer: 52.4 days

Question: What about the tumor growth rate ([6]; 27 days daily oral, LDM topotecan 1.0 mg/kg, combination 1.0 mg/Kg topotecan and 150 mg/Kg pazopanib) of the same molecule?
Answer: delayed the tumor growth rate

Question: And the tumor growth rate ([6]; Pulse topotecan 15 mg/Kg, 27 days)?
Answer: delayed the tumor growth rate

Question: And the “tumor weights, Pulse versus LDM topotecan” value ([6]; after 27 days treatment)?
Answer: No significant differences

Question: What about the “microvessel densities versus control” value ([7]; LDM TP, TP+PZ) of the same molecule?
Answer: significantly lower

Question: What about the “microvessel densities versus control” value ([7]; Pulse TP) of the same molecule?
Answer: significantly lower

Question: And the IC50 [8]?
Answer: 0.0456 µg/mL (≈ 0.108 µM)

Question: And the IC50 [9]?
Answer: 0.0039 µg/mL (≈ 0.00925 µM)

Question: What about the IC50 [10] of the same molecule?
Answer: 0.0631 µg/mL (≈ 0.15 µM)

Question: What about the “CEP, significance versus Pulse” value [11] of the same molecule?
Answer: * (* P < 0.05)

Question: What about the “WBC, significance versus Pulse” value [11] of the same molecule?
Answer: * (* P < 0.05)

Question: And the “White Blood Cell (WBC) levels compared to pulse TP” value [11]?
Answer: significantly lower

Question: What about the “viable CEP levels compared to pulse TP” value [11] of the same molecule?
Answer: significantly lower

Question: And the “levels of viable CECs versus control” value ([11]; LDM TP 1.0 mg/kg, TP+PZ)?
Answer: significantly reduced

Question: And the “levels of viable CEPs versus control” value ([11]; LDM TP 1.0 mg/kg, TP+PZ)?
Answer: significantly reduced

Question: And the “levels of viable CECs versus control” value ([11]; Pulse TP 15 mg/Kg)?
Answer: significantly reduced

Question: And the “levels of viable CEPs versus control” value ([11]; Pulse TP 15 mg/Kg)?
Answer: significantly reduced

Question: What about the “CEC, significance versus Control” value ([11]; Pulse topotecan 15 mg/Kg) of the same molecule?
Answer: * (* P < 0.05)

Question: And the “CEP, significance versus Control” value ([11]; Pulse topotecan 15 mg/Kg)?
Answer: * (* P < 0.05)

Question: And the “CEC, significance versus Control” value ([11]; TP (LDM 1.0 mg/kg), TP + PZ)?
Answer: ** (** P < 0.005)

Question: What about the “CEP, significance versus Control” value ([11]; TP (LDM 1.0 mg/kg), TP + PZ) of the same molecule?
Answer: ** (** P < 0.005)

Question: What about the “WBC, significance versus Control” value ([11]; TP (LDM 1.0 mg/kg), TP + PZ) of the same molecule?
Answer: * (* P < 0.05)
